Measured values: the supplement of paper PMC10307832

How the values were obtained:
Experiment in all cases: relative viability (nuclei count vs DMSO), 5 days (fraction); higher = more cells survive
[1] = compound: COc1cc2c(Oc3ccc4[nH]c(C)cc4c3F)ncnc2cc1OCCCN1CCCC1 [Cediranib] + CS(=O)(=O)CCNCc1ccc(-c2ccc3ncnc(Nc4ccc(OCc5cccc(F)c5)c(Cl)c4)c3c2)o1 [Lapatinib] (partner 2 µM)
How it was run: (§1)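 After 5 days of treatment, lung cancer cells in 1536-well plates were fixed and stained in a single step (final 0.05% Triton X-100, 1% formaldehyde, 1 ug/ml Hoechst) and their nuclei counted on 4× images. Treatment had been applied by pin tool the day after seeding as one drug alone or as a fixed anchor-drug dose with five library-drug doses (not always all listed) in √10 steps. Relative viability is the nuclei count of treated wells divided by that of vehicle wells, and values are medians of duplicate plates.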

[2] = compound: Nc1ncn([C@H]2C[C@H](O)[C@@H](CO)O2)c(=O)n1 [Decitabine] + Nc1nc2[nH]cc(CCc3ccc(C(=O)N[C@@H](CCC(=O)O)C(=O)O)cc3)c2c(=O)[nH]1 [Pemetrexed] (partner 0.2 µM)
How it was run: as §1

[3] = compound: O=C(C[C@H]1NCCC[C@@H]1O)Cn1cnc2cc(Br)c(Cl)cc2c1=O (racemic) [Halofuginone] + CS(=O)(=O)N1CCN(Cc2cc3nc(-c4cccc5[nH]ncc45)nc(N4CCOCC4)c3s2)CC1 [Pictilisib] (partner 1 µM)
How it was run: as §1

[4] = compound: O=C(C[C@H]1NCCC[C@@H]1O)Cn1cnc2cc(Br)c(Cl)cc2c1=O (racemic) [Halofuginone] + Nc1nc2[nH]cc(CCc3ccc(C(=O)N[C@@H](CCC(=O)O)C(=O)O)cc3)c2c(=O)[nH]1 [Pemetrexed] (partner 0.2 µM)
How it was run: as §1

Cell Line	relative viability ([1]; first compound 0.04 µM)	relative viability ([1]; first compound 0.1265 µM)	relative viability ([1]; first compound 0.4 µM)	relative viability ([1]; first compound 1.265 µM)	relative viability ([1]; first compound 4 µM)	relative viability ([2]; first compound 0.04 µM)	relative viability ([2]; first compound 0.1265 µM)	relative viability ([2]; first compound 0.4 µM)	relative viability ([2]; first compound 1.265 µM)	relative viability ([2]; first compound 4 µM)	relative viability ([3]; first compound 0.001 µM)	relative viability ([3]; first compound 0.003162 µM)	relative viability ([3]; first compound 0.01 µM)	relative viability ([3]; first compound 0.03162 µM)	relative viability ([3]; first compound 0.1 µM)	relative viability ([4]; first compound 0.001 µM)	relative viability ([4]; first compound 0.003162 µM)	relative viability ([4]; first compound 0.01 µM)	relative viability ([4]; first compound 0.03162 µM)	relative viability ([4]; first compound 0.1 µM)
NCI-H322M	0.578	0.915	0.562	0.617	0.52	0.549	0.602	0.534	0.709	0.53	0.484	0.514	0.489	0.486	0.502	0.633	0.63	0.554	0.586	0.398
NCI-H358	0.478	0.666	0.454	0.419	0.466	0.152	0.168	0.129	0.131	0.161	0.364	0.351	0.359	0.245	0.196	0.171	0.167	0.167	0.154	0.138
NCI-H460	1.05	1.01	0.905	1	0.639	0.0582	0.0551	0.0502	0.0449	0.0449	0.393	0.345	0.336	0.345	0.299	0.0584	0.0659	0.0638	0.0536	0.0574
NCI-H520	0.977		0.605	0.759	0.785	0.545	0.468	0.477	0.317	0.293	0.301	0.295	0.281	0.243	0.181	0.726	0.662	0.784	0.611	0.246
NCI-H596	1.19	1.29	1.06	0.868	1.06	0.582	0.456	0.338	0.44	0.484	0.423	0.431	0.388	0.423	0.3	0.514	0.506	0.468	0.511	0.451
NCI-H647	1.46	1.19	1.08	1.02	1.19	0.168	0.149	0.12	0.13	0.112	0.543	0.425	0.459	0.418	0.33	0.191	0.171	0.172	0.155	0.0946
NCI-H650	0.956	0.444	0.913	0.8	0.938	0.686	0.588	0.382	0.273	0.266	0.956	0.953	1.02	0.801	0.566	0.981	0.954	0.946	0.825	0.696
NCI-H661	0.552	0.738	0.403	0.494	0.544	0.779	0.657	0.572	0.481	0.404	0.496	0.355	0.365	0.408	0.444	0.927	0.896	0.868	0.768	0.642
NCI-H838	1.02	0.796	0.914	0.737	1.11	0.225	0.236	0.2	0.19	0.198	0.478	0.481	0.42	0.37	0.134	0.266	0.256	0.249	0.189	0.128
NCI-H1355	1.01	0.693	0.955	0.798	1.03	0.701	0.513	0.38	0.323	0.314	0.444	0.424	0.458	0.501	0.376	1.07	1	1.02	1.03	0.919
NCI-H1395	0.961		1.35	0.97	1.01	0.64	0.685	0.744	0.474	0.484	0.625	0.674	0.86	0.578	0.54	0.873	0.822	0.991	0.696	0.571
NCI-H1437	0.87	0.791	0.764	0.842	1.03	0.318	0.276	0.295	0.235	0.214	0.429	0.536	0.414	0.402	0.24	0.318	0.337	0.329	0.307	0.254
NCI-H1563	0.89	0.66	0.935	0.822	0.78	0.791	0.899	1.43	0.751	0.858	0.671	0.644	0.685	0.588	0.575	0.782	0.788	0.825	0.685	0.585
NCI-H1650	0.955	0.183	0.802	0.776	0.665	0.325	0.311	0.27	0.25	0.25	0.28	0.658	0.469	0.495	0.136	0.339	0.388	0.375	0.325	0.284
NCI-H1651	0.819	0.919	0.825	0.668	0.855	0.543	0.43	0.434	0.331	0.278	0.677	0.586	0.548	0.522	0.243	0.56	0.489	0.568	0.572	0.592
NCI-H1666	0.678	0.339	0.554	0.541	0.69	0.874	0.79	0.712	0.641	0.504	0.483	0.357	0.443	0.406	0.323	0.883	0.78	0.904	0.878	0.806
